# Source: PubChem BioAssay AID2060498 (Molecular Pharmacology Branch, DTP, NCI, 2025)
# Where “and” joins values, the source holds several entries; their conditions need not be identical. Identical values can stand only once.
# Test system: 171881-019-R-J1-PDC tumor spheroids, viability
# Test: Anticancer human tumor 171881-019-R-J1-PDC patient-derived invasive breast carcinoma cell line growth inhibition [GQUAD]
# Conditions: spheroids with HUVEC and MSC; for viability, T/C: stronger effect = lower value
# Source text: DNA G-quadruplex Stabilizer Agents in Combinations in Complex Spheroids
# A high-throughput screen of multi-cell type tumor spheroids was designed to identify active combinations of DNA G-quadruplex stabilizer agents and targeted small molecules. Complex spheroids include a stromal component modeled by human endothelial cells (HUVEC) and fibroblasts modeled by human mesenchymal stem cells (MSCs). The concentration ranges selected for each drug and investigational agent were based upon clinically achievable concentrations if the clinical Cmax of the agent was known.
# Compounds. The drugs and investigational agents: pidnarulex (CX-5461; NSC782164), APTO-253 (NSC789042), BRACO-19 (NSC847499), peposertib (NSC802822), ceralasertib (NSC780249), elimusertib (NSC800525), camonsertib (NSC841442), AZD-1390 (NSC803789), olaparib (NSC753686), talazoparib (NSC767125), ART-558 (NSC835418), sotorasib (NSC818433), MRTX-1133 (NSC836407), SN-38 (NSC673596), topotecan (NSC609699), etoposide (NSC141540), doxorubicin (NSC123127), gemcitabine (NSC613327), 5-fluorouracil (NSC19893), paclitaxel (NSC125973), vemurafenib (NSC761431), panobinostat (NSC761190), R-306465 (JNJ-16241199; NSC773264), adavosertib (NSC754352), TP-3654 (NSC805149), carboplatin (NSC241240), KSQ-4279 (NSC840948), and staurosporine (NSC755774) were obtained from the National Cancer Institute (NCI) Developmental Therapeutics Program Chemical Repository (34). The FDA-approved anticancer drug set is available from the NCI Developmental Therapeutics Program. […] The stock solutions were prepared in dimethyl sulfoxide (DMSO, Sigma-Aldrich, St. Louis, MO, cat. D2650) at 800-fold the tested concentration and stored at -70 degrees C prior to their use. All drugs and investigational agents were tested over a range starting from a high concentration at or near the clinical Cmax and decreasing in half-log increments. If the clinical Cmax for an agent had not been determined, the highest concentration tested was 10 microM.
# 2.3 Cell Culture. All cells were maintained in an incubator at 37 degrees C and 5% CO2 with 95% humidity. The PDC lines were cultured according to standard operating procedures established by the NCI PDMR. All PDCs were thawed and cultured in Matrigel-coated flasks prepared with a working solution of 1X Ham's F-12 nutrient mix, without supplementation (Invitrogen, cat. 11765054), 100 U/mL penicillin-streptomycin (Invitrogen, cat. 15140122), and 2.5% Matrigel (Corning Inc., cat. 354248) for the first three passages. The 857933-349-R-J2-PDC line was cultured in 6C/Colon 1B media, which includes advanced DMEM/F-12 (Thermo Fisher Scientific, cat. 12634028), 10 mM HEPES (Thermo Fisher Scientific, cat. 15630080), 1X GlutaMAX supplement (Thermo Fisher Scientific, cat. 35050061), 0.1 mg/mL primocin (InvivoGen, cat. ant-pm-2), 10% defined fetal bovine serum, heat inactivated (HyClone Laboratories Inc., cat. SH30070.03HI), 50% L-WRN conditioned media (ATCC, cat. CRL-3276), 1.25 mM N-Acetyl-L-cysteine (Sigma-Aldrich, cat. A9165), 10 mM nicotinamide (Sigma-Aldrich, cat. N0636), 1X B-27 supplement (Thermo Fisher Scientific, cat. 17504044), 1X N-2 supplement (Thermo Fisher Scientific, cat. 17502048), 10 microM Y-27632 dihydrochloride (Tocris Bioscience, cat. 1254), and 50 ng/mL human EGF recombinant protein (Thermo Fisher Scientific, cat. PHG0311). The 485176-168-R4-J1-PDC line was cultured in Panc media, which includes all 6C/Colon 1B media components plus 100 ng/mL human FGF-10 (Thermo Fisher Scientific, cat. 100-26), 500 nM SB-431542 (Selleckchem, cat. S1067), and gastrin (Tocris, cat. 3006).
# […]
# 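Note: spheroids exposed to compounds for 7 days.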
# 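Throughout, for viability, T/C: 100% = DMSO vehicle control viability.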
smiles,measurement,setting,value
CCc1c2c(nc3ccc(O)cc13)-c1cc3c(c(=O)n1C2)COC(=O)[C@]3(O)CC + Cc1cnc(CNC(=O)c2c(=O)c3ccc(N4CCCN(C)CC4)nc3n3c2sc2ccccc23)cn1,IC50,"curve of first compound, second compound 0.0316 µM",2.09 nM
same,IC50,"curve of first compound, second compound 0.1 µM",3.31 nM
same,IC50,"curve of first compound, second compound 0.316 µM",5.81 nM
same,IC50,"curve of first compound, second compound 1 µM",8.53 nM
same,IC50,"curve of first compound, second compound 3.16 µM",7.26 nM
same,IC50,"curve of first compound, second compound 10 µM",5.9 nM
same,"viability, T/C","second compound 0.0316 µM, first compound 0.000999 µM",62.6%
same,"viability, T/C","second compound 0.0316 µM, first compound 0.00316 µM",39.1%
same,"viability, T/C","second compound 0.0316 µM, first compound 0.00999 µM",36.5%
same,"viability, T/C","second compound 0.0316 µM, first compound 0.0316 µM",30.9%
same,"viability, T/C","second compound 0.0316 µM, first compound 0.0999 µM",26.2%
same,"viability, T/C","second compound 0.0316 µM, first compound 0.316 µM",19.9%
same,"viability, T/C","second compound 0.1 µM, first compound 0.000999 µM",57.7%
same,"viability, T/C","second compound 0.1 µM, first compound 0.00316 µM",49.3%
same,"viability, T/C","second compound 0.1 µM, first compound 0.00999 µM",43.5%
same,"viability, T/C","second compound 0.1 µM, first compound 0.0316 µM",35.3%
same,"viability, T/C","second compound 0.1 µM, first compound 0.0999 µM",26.4%
same,"viability, T/C","second compound 0.1 µM, first compound 0.316 µM",20.2%
same,"viability, T/C","second compound 0.316 µM, first compound 0.000999 µM",61.6%
same,"viability, T/C","second compound 0.316 µM, first compound 0.00316 µM",55.5%
same,"viability, T/C","second compound 0.316 µM, first compound 0.00999 µM",46.1%
same,"viability, T/C","second compound 0.316 µM, first compound 0.0316 µM",35.5%
same,"viability, T/C","second compound 0.316 µM, first compound 0.0999 µM",27.7%
same,"viability, T/C","second compound 0.316 µM, first compound 0.316 µM",18.8%
same,"viability, T/C","second compound 1 µM, first compound 0.000999 µM",60.3%
same,"viability, T/C","second compound 1 µM, first compound 0.00316 µM",53.2%
same,"viability, T/C","second compound 1 µM, first compound 0.00999 µM",51.6%
same,"viability, T/C","second compound 1 µM, first compound 0.0316 µM",34.3%
same,"viability, T/C","second compound 1 µM, first compound 0.0999 µM",24%
same,"viability, T/C","second compound 1 µM, first compound 0.316 µM",15.8%
same,"viability, T/C","second compound 3.16 µM, first compound 0.000999 µM",60.8%
same,"viability, T/C","second compound 3.16 µM, first compound 0.00316 µM",50.1%
same,"viability, T/C","second compound 3.16 µM, first compound 0.00999 µM",52.9%
same,"viability, T/C","second compound 3.16 µM, first compound 0.0316 µM",35.4%
same,"viability, T/C","second compound 3.16 µM, first compound 0.0999 µM",26%
same,"viability, T/C","second compound 3.16 µM, first compound 0.316 µM",13.8%
same,"viability, T/C","second compound 10 µM, first compound 0.000999 µM",52.3%
same,"viability, T/C","second compound 10 µM, first compound 0.00316 µM",55.1%
same,"viability, T/C","second compound 10 µM, first compound 0.00999 µM",47.4%
same,"viability, T/C","second compound 10 µM, first compound 0.0316 µM",37.3%
same,"viability, T/C","second compound 10 µM, first compound 0.0999 µM",24.8%
same,"viability, T/C","second compound 10 µM, first compound 0.316 µM",12.6%
Cc1cnc(CNC(=O)c2c(=O)c3ccc(N4CCCN(C)CC4)nc3n3c2sc2ccccc23)cn1,"viability, T/C",compound 0.0316 µM,94.3% [middle of 12 runs]
same,"viability, T/C",compound 0.1 µM,85.4% [middle of 12 runs]
same,"viability, T/C",compound 0.316 µM,76% [middle of 12 runs]
same,"viability, T/C",compound 1 µM,70.7% [middle of 11 runs]
same,"viability, T/C",compound 3.16 µM,65% [middle of 12 runs]
same,"viability, T/C",compound 10 µM,62.7% [middle of 12 runs]
same,IC50,"compound alone, run of 02/20/2024",> 10000 nM
CC1COCCN1c1cc(C2(S(C)(=N)=O)CC2)nc(-c2ccnc3[nH]ccc23)n1 (stereo unspecified),"viability, T/C",compound 0.0316 µM,106% and 98.7% and 79.5%
same,"viability, T/C",compound 0.1 µM,97.3% and 97.8% and 89.9%
same,"viability, T/C",compound 0.316 µM,93.4% and 89.1% and 82.5%
same,"viability, T/C",compound 1 µM,59.2% and 58.9% and 55.1%
same,"viability, T/C",compound 3.16 µM,18.7% and 17.7% and 17%
same,"viability, T/C",compound 10 µM,9.35% and 7.04% and 9.31%
same,IC50,curve of compound,1290 nM and 1270 nM and 1170 nM
